Each block holds one molecule with its values, some of them ahead of it.
Experiments:
Assay type in all cases: cell-based
[1] = tested on: RARs and RXRs; assay: Co-transfection assay, RAR and RXR receptors taken together; conditions: for activity on the RARs or RXRs (in words): any of the RARs or RXRs; for RAR activity (in words): RARs
Experimental: Utilizing the "cis-trans" or "co-transfection" assay described by Evans et al., Science, 240:889-95 (May 13, 1988), the disclosure of which is herein incorporated by reference, the retinoid compounds of the present invention were tested and found to have strong, specific activity as either selective RAR agonists, selective RXR agonists, or as pan-agonist activators of both RAR and RXR receptors. This assay is described in further detail in U.S. Pat. Nos. 4,981,784 and 5,071,773, the disclosures of which are incorporated herein by reference.
In the co-transfection assay, a cloned cDNA for an IR (e.g., human RARα, RARβ, RXRγ) under the control of a constitutive promoter (e.g., the SV 40 promoter) is introduced by transfection (a procedure to induce cells to take up foreign genes) into a background cell substantially devoid of endogenous IRs. This introduced gene directs the recipient cells to make the IR protein of interest. A second gene is also introduced (co-transfected) into the same cells in conjunction with the IR gene. This second gene, comprising the cDNA for a reporter protein, such as firefly luciferase (LUC), is controlled by an appropriate hormone responsive promoter containing a hormone response element (HRE). This reporter plasmid functions as a reporter for the transcription-modulating activity of the target IR. Thus, the reporter acts as a surrogate for the products (mRNA then protein) normally expressed by a gene under control of the target receptor and its native hormone.
The co-transfection assay can detect small molecule agonists or antagonists of target IRs. Exposing the transfected cells to an agonist ligand compound increases reporter activity in the transfected cells. This activity can be conveniently measured, e.g., by increasing luciferase production, which reflects compound-dependent, IR-mediated increases in reporter transcription. […] . Increasing concentrations of a suspected antagonist will decrease the reporter signal (e.g., luciferase production). The co-transfection assay is therefore useful to detect both agonists and antagonists of specific IRs. Furthermore, it determines not only whether a compound interacts with a particular IR, but whether this interaction mimics (agonizes) or blocks (antagonizes) the effects of the native regulatory molecules on target gene expression, as well as the specificity and strength of this interaction.
To determine RAR and/or RXR agonist activity of the compounds of the present invention, the CV-1 cells were transiently transfected by calcium phosphate coprecipitation according to the procedure of Berger et al., 41 J. Steroid Biochem. Mol. Biol., 733 (1992) with the following receptor expressing plasmids: pRShRARα: Giguere et at., 330 Nature, 624 (1987); pRShRARβ and pRShRARγ, Ishikawa et al., 4 Mol. Endocrin., 837 (1990); pRShRXRα, Mangelsdorf et at., 345 Nature, 224 (1990); and pRSmRXRβ and pRSmRXRγ, Mangelsdorf et al., 6 Genes & Devel., 329 (1992), the disclosures of which are herein incorporated by reference. Each of these receptor expressing plasmids was co-transfected at a concentration of 5 ng/well, along with a basal reporter plasmid at 100 ng/well, the internal control plasmid pRS-β-Gal at 50 ng/well and filler DNA, pGEM at 45 ng/well.

[2] = biological target: T1, RXRγ (Mus musculus, UniProt P28705); assay: Co-transfection assay, RXRγ agonist activity; conditions: CV-1 cells, 40 hours, read-out: Potency (EC50) RXRγ
T1 construct: expressed in transfected cells; host or cells: CV-1 (African green monkey kidney)
T1 sequence (P28705 1-463): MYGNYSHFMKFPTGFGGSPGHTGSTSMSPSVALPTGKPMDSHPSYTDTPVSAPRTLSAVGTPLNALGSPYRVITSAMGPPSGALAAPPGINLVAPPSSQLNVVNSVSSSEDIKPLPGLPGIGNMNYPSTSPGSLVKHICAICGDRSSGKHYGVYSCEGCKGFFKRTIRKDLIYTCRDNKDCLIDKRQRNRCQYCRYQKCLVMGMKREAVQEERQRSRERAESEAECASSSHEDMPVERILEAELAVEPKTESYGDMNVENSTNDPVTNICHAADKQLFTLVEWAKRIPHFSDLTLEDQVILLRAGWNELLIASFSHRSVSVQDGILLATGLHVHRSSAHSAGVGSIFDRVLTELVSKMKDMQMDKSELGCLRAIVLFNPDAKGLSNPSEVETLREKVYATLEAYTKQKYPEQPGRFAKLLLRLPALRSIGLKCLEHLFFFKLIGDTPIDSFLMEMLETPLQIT

[3] = biological target: T2, RARγ (Homo sapiens, UniProt P13631); assay: Co-transfection assay, RARγ agonist activity; conditions: CV-1 cells, 40 hours, read-out: Potency (EC50) RARγ
T2 construct: expressed in transfected cells; host or cells: CV-1 (African green monkey kidney)
T2 sequence (P13631 1-454): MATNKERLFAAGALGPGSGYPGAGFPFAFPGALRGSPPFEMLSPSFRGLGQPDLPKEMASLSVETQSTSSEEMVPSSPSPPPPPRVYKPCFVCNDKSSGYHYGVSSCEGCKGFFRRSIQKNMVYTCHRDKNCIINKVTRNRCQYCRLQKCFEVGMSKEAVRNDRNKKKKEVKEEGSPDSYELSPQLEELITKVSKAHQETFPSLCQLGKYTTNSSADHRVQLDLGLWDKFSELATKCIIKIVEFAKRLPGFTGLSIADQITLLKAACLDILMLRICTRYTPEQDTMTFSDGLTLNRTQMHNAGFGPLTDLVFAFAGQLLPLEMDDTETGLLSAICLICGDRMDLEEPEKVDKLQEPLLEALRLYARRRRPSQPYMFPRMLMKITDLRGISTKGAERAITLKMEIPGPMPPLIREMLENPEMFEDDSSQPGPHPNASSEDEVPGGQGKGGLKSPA

[4] = biological target: T3, RARβ (Homo sapiens, UniProt P10826); assay: Co-transfection assay, RARβ agonist activity; conditions: CV-1 cells, 40 hours, read-out: Potency (EC50) RARβ
T3 construct: expressed in transfected cells; host or cells: CV-1 (African green monkey kidney)
T3 sequence (P10826 1-448 isoform P10826-2): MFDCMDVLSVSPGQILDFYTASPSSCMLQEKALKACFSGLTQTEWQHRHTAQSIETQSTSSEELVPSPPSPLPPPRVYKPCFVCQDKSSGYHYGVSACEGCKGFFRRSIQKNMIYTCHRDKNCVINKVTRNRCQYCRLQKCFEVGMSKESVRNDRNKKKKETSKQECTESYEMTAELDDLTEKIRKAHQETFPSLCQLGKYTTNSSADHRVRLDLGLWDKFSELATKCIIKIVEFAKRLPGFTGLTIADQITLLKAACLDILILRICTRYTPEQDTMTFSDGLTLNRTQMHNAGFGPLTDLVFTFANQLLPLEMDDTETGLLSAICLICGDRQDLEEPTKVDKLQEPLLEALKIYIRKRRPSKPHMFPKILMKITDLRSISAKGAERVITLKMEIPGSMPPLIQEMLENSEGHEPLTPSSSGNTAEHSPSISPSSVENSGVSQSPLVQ

[5] = biological target: T4, RARα (Homo sapiens, UniProt P10276); assay: Co-transfection assay, RARα agonist activity; conditions: CV-1 cells, 40 hours, read-out: Potency (EC50) RARα
T4 construct: expressed in transfected cells; host or cells: CV-1 (African green monkey kidney)
T4 sequence (P10276 1-462): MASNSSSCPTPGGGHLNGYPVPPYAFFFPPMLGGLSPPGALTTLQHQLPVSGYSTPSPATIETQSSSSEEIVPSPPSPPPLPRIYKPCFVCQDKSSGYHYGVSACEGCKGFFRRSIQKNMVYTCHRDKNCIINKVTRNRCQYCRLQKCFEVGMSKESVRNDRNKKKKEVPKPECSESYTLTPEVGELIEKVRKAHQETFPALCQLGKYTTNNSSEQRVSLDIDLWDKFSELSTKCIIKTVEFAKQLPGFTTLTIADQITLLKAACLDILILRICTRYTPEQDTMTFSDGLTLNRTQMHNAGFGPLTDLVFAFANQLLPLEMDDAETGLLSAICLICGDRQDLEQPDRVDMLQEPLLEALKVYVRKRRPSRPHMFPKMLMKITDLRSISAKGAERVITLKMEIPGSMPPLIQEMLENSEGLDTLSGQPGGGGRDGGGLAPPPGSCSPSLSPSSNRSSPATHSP

[6] = biological target: T5, RXRα (Homo sapiens, UniProt P19793); assay: Co-transfection assay, RXRα agonist activity; conditions: CV-1 cells, 40 hours, read-out: Potency (EC50) RXRα
T5 construct: expressed in transfected cells; host or cells: CV-1 (African green monkey kidney)
T5 sequence (P19793 1-462): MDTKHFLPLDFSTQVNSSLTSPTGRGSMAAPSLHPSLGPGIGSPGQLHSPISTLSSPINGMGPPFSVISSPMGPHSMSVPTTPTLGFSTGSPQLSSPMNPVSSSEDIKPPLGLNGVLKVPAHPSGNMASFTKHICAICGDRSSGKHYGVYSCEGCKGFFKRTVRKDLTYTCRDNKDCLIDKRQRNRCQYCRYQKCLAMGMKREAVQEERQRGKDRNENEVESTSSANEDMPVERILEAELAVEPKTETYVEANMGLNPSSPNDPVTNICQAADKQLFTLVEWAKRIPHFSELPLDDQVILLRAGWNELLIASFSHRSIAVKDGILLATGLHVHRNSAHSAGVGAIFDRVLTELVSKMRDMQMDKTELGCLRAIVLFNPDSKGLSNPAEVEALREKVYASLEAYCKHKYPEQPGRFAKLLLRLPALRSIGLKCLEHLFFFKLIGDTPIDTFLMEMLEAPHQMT

[7] = biological target: T6, RXRβ (Mus musculus, UniProt P28704); assay: Co-transfection assay, RXRβ agonist activity; conditions: CV-1 cells, 40 hours, read-out: Potency (EC50) RXRβ
T6 construct: expressed in transfected cells; host or cells: CV-1 (African green monkey kidney)
T6 sequence (P28704 1-520): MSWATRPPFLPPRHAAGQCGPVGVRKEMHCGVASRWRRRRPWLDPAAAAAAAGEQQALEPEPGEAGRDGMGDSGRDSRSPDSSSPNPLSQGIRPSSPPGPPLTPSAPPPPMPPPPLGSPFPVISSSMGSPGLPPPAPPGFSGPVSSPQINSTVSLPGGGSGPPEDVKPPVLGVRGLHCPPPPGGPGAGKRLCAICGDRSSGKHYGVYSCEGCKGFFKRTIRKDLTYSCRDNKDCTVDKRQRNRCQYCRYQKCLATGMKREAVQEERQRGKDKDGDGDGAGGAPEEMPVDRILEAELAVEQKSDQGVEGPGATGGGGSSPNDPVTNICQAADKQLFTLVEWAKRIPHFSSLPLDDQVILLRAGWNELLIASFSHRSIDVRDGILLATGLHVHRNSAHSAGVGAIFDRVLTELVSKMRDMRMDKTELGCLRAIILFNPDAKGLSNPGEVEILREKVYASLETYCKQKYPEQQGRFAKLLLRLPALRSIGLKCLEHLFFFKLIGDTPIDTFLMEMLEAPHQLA

Compound: COc1ccc(/C(C)=C/C=C/C(C)=C/C(=O)O)cc1OC [A, (2E,4E,6E)-3-methyl-7-(3,4-dimethoxyphenyl)octa-2,4,6-trienoic acid, reference compound]
activity on the RARs or RXRs (in words) [1]: no, or virtually no, activity

Compound: COc1ccc(/C(C)=C/C=C/C(C)=C/C(=O)O)cc1 [B, (2E,4E,6E)-3-methyl-7-(4-methoxyphenyl)octa-2,4,6-trienoic acid, reference compound]
activity on the RARs or RXRs (in words) [1]: no, or virtually no, activity

Compound: COc1cc(C)c(/C=C/C=C/C=C(\C)C(=O)O)c(C)c1C [C, (2E,4E,6E)-2-methyl-7-(2,3,6-trimethyl-4-methoxyphenyl)hepta-2,4,6-trienoic acid, reference compound]
activity on the RARs or RXRs (in words) [1]: no, or virtually no, activity

Compound: CCC/C(=C/C=C/C(C)=C/C(=O)O)c1cc(C(C)(C)C)cc(C(C)(C)C)c1 [Compound 28, (2E, 4E, 6Z)-7-(3,5-Di-t-butylphenyl)-3-methyldeca-2,4,6-trienoic acid]
RXR activity (in words) ([1]; RXRs): very potent and selective RXR active compound

Compound: CC(/C=C/C=C1\CCOc2c1cc(C(C)(C)C)cc2C(C)(C)C)=C\C(=O)O [Compound 39, (2E,4E,6E)-6-(6,8,-Di-t-butylchroman-4-ylidene)-3-methylhexa-2,4,6-trienoicacid]
RAR activity (in words) [1]: extremely potent RAR active compounds

Compound: CC(/C=C/C=C(\C)c1cc(C(F)(F)F)cc(C(F)(F)F)c1)=C\C(=O)O [Compound 41, (2E, 4E, 6E)-7-(3,5-Di-trifluoromethylphenyl)-3-methylocta-2,4,6-trienoic acid]
RAR activity (in words) [1]: extremely potent RAR active compounds

Continued, values first:

potency profile in comparison to 9-cis retinoic acid (in words) ([1]; versus 9-cis, pan-agonist): superior potency profile
Compound: C/C(=C/C=C/C(C)=C/C(=O)O)c1cc(C(C)C)cc(C(C)C)c1 [Compound 43, (2E, 4E, 6Z)-7-(3,5-Di-isopropylphenyl)-3-methylocta-2,4,6-trienoic acid]

EC50 [2]: 224 nM
EC50 [3]: 33 nM
EC50 [4]: 37 nM
EC50 [5]: 223 nM
EC50 [6]: 1440 nM
EC50 [7]: 21 nM
Compound: CC(/C=C/C=C(\C)c1ccc(C(C)(C)C)cc1)=C\C(=O)O [Compound 44, (2E, 4E, 6E)-7-(4-T-butyl-phenyl)-3-methylocta-2,4,6-trienoic acid]

RAR activity (in words) [1]: extremely potent RAR active compounds
selectivity among RARs (in words) ([1]; RARβ and RARγ): selectivity on RARβ and RARγ
Compound: COc1c(C(C)(C)C)cc(/C(C)=C/C=C/C(C)=C/C(=O)O)cc1C(C)(C)C [Compound 47, (2E, 4E, 6E) -3-Methyl-7-(3,5-di-t-butyl-4-methoxyphenyl)octa-2,4,6-trienoic acid]

activity on the RARs or RXRs (in words) [1]: no, or virtually no, activity
Compound: COC(/C=C/C=C(\C)c1ccc(C(C)(C)C)cc1)=C/C(=O)O [D, (2E,4E,6E)-3-methoxy-7-(4-t-butylphenyl)octa-2,4,6-trienoic acid, reference compound]

From patent US5721103A, “Trienoic retinoid compounds and methods” (Ligand Pharmaceuticals Incorporated, priority 1995, dated 1998)
